Patent US20180200233A1, “COMPOSITIONS FOR PREVENTING CANCERS ASSOCIATED WITH HUMAN PAPILLOMA VIRUSES” (Loma Linda University, priority 2015, published 2018)

B1: TRAIL: tumor necrosis factor-related apoptosis-inducing ligand; extracellular domain of human TRAIL, His-tagged, expressed in E. coli (protein, UniProt P50591 39-281, looked up)
extracellular domain: TNELKQMQDKYSKSGIACFLKEDDSYWDPNDEESMNSPCWQVKWQLRQLVRKMILRTSEETISTVQEKQQNISPLVRERGPQRVAAHITGTRGRSNTLSSPNSKNEKALGRKINSWESSRSGHSFLSNLHLRNGELVIHEKGFYYIYSQTYFRFQEEIKENTKNDKQMVQYIYKYTSYPDPILLMKSARNSCWSKDAEYGLYSIYQGGIFELKENDRIFVSVTNEHLIDMDHEASFFGAFLVG
modifications: extracellular domain His tag
notes: tumor necrosis factor-related apoptosis-inducing ligand; extracellular domain of human TRAIL, His-tagged, expressed in E. coli

What was measured:
GST-E6/His-caspase 8 = biological target: T1, GST-E6/His-caspase 8 (Human papillomavirus type 16, UniProt P03126); experiment: AlphaScreen bead-based assay, GST-E6/His-caspase 8 binding; parameters: species or system HPV 16; settings: for inhibition of E6/caspase 8 binding (in words): FIG. 2A, primary screen at 10 μM
T1 construct: made in house
T1 sequence (P03126 whole entry): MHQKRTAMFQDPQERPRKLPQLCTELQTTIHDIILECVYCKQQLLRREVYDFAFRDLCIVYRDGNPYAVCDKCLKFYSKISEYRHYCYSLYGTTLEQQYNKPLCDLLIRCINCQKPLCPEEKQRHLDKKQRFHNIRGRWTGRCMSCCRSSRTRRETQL
Description: (§1) FIGS. 2A-C are graphs providing data regarding inhibition of protein-protein interactions by 3-(1H-indol-1yl)propan-1-amine (1), three benzimidazole derivatives (2-4), and spinacine (5). Compounds, at the indicated concentrations (1.4 μM to 3.2 mM) were tested using a bead-based screening assay for their ability to inhibit three different protein/protein interactions: (FIG. 2A) GST-E6/His-caspase 8; (FIG. 2B) GST-E6/HisE6AP; and (FIG. 2C) GST-caspase 8/His-caspase 8. Binding in the presence of 1.4 μM of the test compound was set at 100%. Experiments were performed in triplicate, and error bars indicate the standard deviation.
HPV E6 binds to caspase 8 (Garnett, T. O., M. Filippova, and P. J. Duerksen-Hughes, Accelerated degradation of FADD and procaspase 8 in cells expressing human papilloma virus 16 E6 impairs TRAIL-mediated apoptosis. Cell death and differentiation, 2006. 13(11): p. 1915-26), and myricetin can block the E6/caspase 8 interaction in vitro (Yuan, C. H., et al., Small molecule inhibitors of the HPV16-E6 interaction with caspase 8. Bioorganic & medicinal chemistry letters, 2012. 22(5): p. 2125-9). A bead-based assay based on AlphaScreen™ technology (Perkin-Elmer) is used to identify inhibitors of the E6/caspase 8 interaction (Yuan, C. H., et al., Small molecule inhibitors of the HPV16-E6 interaction with caspase 8. Bioorganic & medicinal chemistry letters, 2012. 22(5): p. 2125-9). The ActiProbe 2K (2,000 compounds) library was screened using the same approach. […] Analysis of the structures and physical/chemical characteristics of those molecules led to the selection of five additional compounds: 3-(1H-indol-1-yl)propan-1-amine methanesulfonate (1), benzimidazole (2), 1H-benzimidazole-1-methanol (3), 2-(methoxymethyl)-1H-benzimidazole (4), and spinacine (5) for further study (FIG. 1).
(§2) To determine the dose-responsiveness of these five compounds, variable concentrations of those small molecules were first tested for their ability to inhibit E6/caspase binding. […] These molecules, which had been selected for their ability to interfere with E6/caspase 8 binding, were then tested to determine if they could also affect other interactions of E6, such as its binding to E6-associated protein (E6AP). The E6/E6AP interaction is required for the E6-mediated acceleration of p53 degradation (Huibregtse, J. M., M. Scheffner, and P. M. Howley, A cellular protein mediates association of p53 with the E6 oncoprotein of human papillomavirus types 16 or 18. The EMBO journal, 1991. 10(13): p. 4129-35).
Alpha-Screen™ technology was used to assess the interactions between GST-E6, GST-caspase 8, His-E6AP, and His-caspase 8. Binding assays were performed in white 384-well plates (Perkin-Elmer) in a total volume of 25 μl as previously described (Tungteakkhun, S. S., et al., The interaction between human papillomavirus type 16 and FADD is mediated by a novel E6 binding domain. Journal of virology, 2008. 82(19): p. 9600-14). Briefly, 5 μl (50 ng) of GST-E6 and 5 μl (87.5 ng) of His-caspase 8 were included in each reaction mixture with 5 μl blocking buffer (0.5 mg BSA, 0.5% Tween 20 in PBS) in the absence or presence of 10 μM of each test chemical. […] The mixture was incubated in the dark at room temperature overnight, and the emitted signal was detected using the Envision Multilabel plate reader (Perkin-Elmer). In the presence of test chemicals, the binding affinity was calculated as a percentage of the binding in the presence of carrier only (DMSO).

[1] = biological target: T2, GST-caspase 8/His-caspase 8 (Homo sapiens, UniProt Q14790); experiment: AlphaScreen counter-screen, GST-caspase 8/His-caspase 8 binding; settings: for inhibition of caspase 8/caspase 8 interaction (in words): FIG. 2C
T2 construct: pTriEx-Caspase-8 DED plasmids; fused on or other part: GST tag on one copy, His tag on the other (AlphaScreen bead handles)
T2 sequence (Q14790 whole entry, the tested form may be a part): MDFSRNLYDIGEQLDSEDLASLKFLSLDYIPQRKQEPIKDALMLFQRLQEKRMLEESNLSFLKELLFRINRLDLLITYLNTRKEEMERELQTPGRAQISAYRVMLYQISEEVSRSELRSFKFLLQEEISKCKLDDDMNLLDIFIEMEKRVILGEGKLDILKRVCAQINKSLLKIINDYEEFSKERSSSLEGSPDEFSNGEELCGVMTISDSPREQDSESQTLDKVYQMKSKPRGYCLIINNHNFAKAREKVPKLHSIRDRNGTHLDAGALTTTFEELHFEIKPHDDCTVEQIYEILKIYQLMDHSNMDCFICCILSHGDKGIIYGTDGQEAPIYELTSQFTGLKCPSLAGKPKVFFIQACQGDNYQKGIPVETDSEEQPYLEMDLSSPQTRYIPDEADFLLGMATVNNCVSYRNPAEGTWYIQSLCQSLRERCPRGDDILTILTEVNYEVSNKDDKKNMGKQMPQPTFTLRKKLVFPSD
Description: as §1
To ask whether this inhibition was specific, a counter-screening assay was employed the ability of candidates to inhibit the binding of GST-caspase 8 to His-caspase 8 was assessed; those that did were to be eliminated. In this counter-screening assay, the materials in each well were the same as in the primary screen, with the exception that GST-caspase 8 replaced GST-E6.
(§3) Alpha-Screen™ technology was used to assess the interactions between GST-E6, GST-caspase 8, His-E6AP, and His-caspase 8. Binding assays were performed in white 384-well plates (Perkin-Elmer) in a total volume of 25 μl as previously described (Tungteakkhun, S. S., et al., The interaction between human papillomavirus type 16 and FADD is mediated by a novel E6 binding domain. Journal of virology, 2008. 82(19): p. 9600-14). Briefly, 5 μl (50 ng) of GST-E6 and 5 μl (87.5 ng) of His-caspase 8 were included in each reaction mixture with 5 μl blocking buffer (0.5 mg BSA, 0.5% Tween 20 in PBS) in the absence or presence of 10 μM of each test chemical. Members of the library were present at […] in DMSO. After a one-hour incubation of the mixture at room temperature, 5 μl donor beads and 5 μl acceptor beads (Perkin-Elmer) were added to each well according to the manufacturer's protocol. The mixture was incubated in the dark at room temperature overnight, and the emitted signal was detected using the Envision Multilabel plate reader (Perkin-Elmer). In the presence of test chemicals, the binding affinity was calculated as a percentage of the binding in the presence of carrier only (DMSO).

GST-E6/His-E6AP = biological target: T3, GST-E6/His-E6AP (Human papillomavirus type 16, UniProt P03126); experiment: AlphaScreen bead-based assay, GST-E6/His-E6AP binding; parameters: species or system HPV 16; settings: for inhibition of E6/E6AP interaction (in words): FIG. 2B
T3 construct: made in house
T3 sequence (P03126 whole entry): as the sequence (P03126 whole entry) above
Description: as §1, §2, §3

SiHa cells = experiment: MTT cell viability, SiHa cells, TRAIL-induced apoptosis; format: cell-based, human; settings: SiHa cells in comparison to U2OS cells; with cycloheximide 5 μg/ml, FIG. 3A
Description: FIGS. 3A-E are graphs providing data regarding resistance of HPV^+ SiHa cells to TRAIL-, cisplatin- and […] apoptosis, in the presence and absence of small molecules as disclosed herein. (FIG. 3A) HPV^+ SiHa cells are resistant to TRAIL-induced apoptosis as compared to the human osteosarcoma cell line U2OS. Cells (2×10^4 cells per well) were seeded into a 96-well plate, allowed to incubate overnight, and then treated with indicated concentration of TRAIL in the presence of cycloheximide (5 μg/ml). The viability of cells was measured after overnight incubation using the MTT assay; the viability of cells untreated with TRAIL was set at 100% for each group. (FIG. 3B) The indicated concentrations of three small molecules were added to SiHa cells, and an MTT assay was preformed after overnight incubation. The viability of cells untreated with small molecules was set as 100%. (FIG. 3C) The indicated concentrations of myricetin or spinacine were added 4 h prior to TRAIL (100 ng/ml) in the presence of cycloheximide (5 μg/ml) and incubated at 37° C. overnight. The viability of cells untreated with small molecules was set at 100%. (FIG. 3D and FIG. 3E) SiHa cells (2×10^4 cells per well) were seeded into a 96-well plate and allowed to incubate overnight. 100 μM of myricetin and 50 μM of spinacine were added 4 h prior to either (FIG. 3D) doxorubicin or (FIG. 3E) cisplatin. Cell viability was measured after overnight incubation using the MTT assay, and the viability of cells untreated with either myricetin or spinacine was set at 100%. Experiments were performed in triplicate, and error bars indicate the standard deviation.
FIGS. 5A-B are graphs showing myricetin and spinacine (5) re-sensitized HPV^+, but not HPV^−, cells to treatment with TRAIL. SiHa (2×10^4 cells per well) and C33A cells (1×10^4 cells per well) were seeded into a 96-well plate and allowed to incubate overnight, then cells were pre-treated in the presence or absence of myricetin (100 μM) (FIG. 5A) or spinacine (50 μM) (FIG. 5B) for 4 h. The indicated concentration of TRAIL, along with cycloheximide (5 μg/ml) was added and cells were allowed to incubate overnight. Cell viability was measured by MTT assay, and the viability of cells untreated with TRAIL was set at 100%. Experiments were performed in triplicate, and error bars indicate the standard deviation.
The molecules were then tested to determine whether those that block E6/caspase 8 binding in vitro could also act in the context of a cell. SiHa cells are an HPV^+ cell line, derived from a cervical carcinoma, which serves as a commonly used model for HPV-associated malignancies. To determine whether HPV^+ SiHa cells are resistant to TRAIL-induced apoptosis, SiHa cells were treated with TRAIL and cell viability was assessed. TRAIL-sensitive, HPV^− U2OS cells served as a positive control. […] Myricetin and/or spinacine were tested to determine if they could sensitize these HPV^+ cells to TRAIL-induced apoptosis. […] Table 2 lists and compares the concentrations of the three tested compounds required to induce death in 50% of SiHa cells in the presence or absence of TRAIL.
The extracellular domain of human TRAIL was cloned into a pTriEx expression plasmid containing N-terminal Hisx6 tag. His-TRAIL was expressed in the E. coli BL-21 pLys strain and purified as previously described. Doxorubicin and cisplatin were purchased from Sigma. His-TRAIL, doxorubicin, and cisplatin were diluted in PBS to the desired concentration before using. To measure cell survival following treatment with TRAIL, cisplatin and doxorubicin, SiHa (2×10^4/well), C33A (1×10^4/well), and HNSCC cells (2×10^4/well) were seeded into 96-well plates and allowed to adhere overnight. Small molecules at the desired concentration were added and incubated at 37° C. for 4 h. As indicated, TRAIL, cisplatin or doxorubicin was then added. […]

[2] = tested on: UPCI-SCC90-UP-Clone 35 (#90) cells; experiment: MTT cell viability, HPV+ HNSCC cell line #90 with TRAIL; format: cell-based; settings: all selected cell lines; TRAIL as high as 100 ng/ml, FIG. 7A
Description: FIGS. 7A-E are graphs showing myricetin and spinacine (5) re-sensitized HPV^+, but not HPV^−, head and neck cancer cell lines to treatment with TRAIL. (FIG. 7A) Both HPV^− and HPV^+ HN cancer cell lines display resistance to TRAIL treatment. HPV^− (#84) (Myricetin—FIG. 7B; Spinacine—FIG. 7C) and HPV^+ (#90) (FIG. 7D; Spinacine—FIG. 7E) head and neck cancer cell lines (2×10^4 cells per well) were seeded into 96-well plates and allowed to incubate overnight, then cells were pre-treated with myricetin (0-200 μM) or spinacine (0-100 μM) for 4 h. […] of TRAIL, along with cycloheximide (5 μg/ml) was added and cells were allowed to incubate overnight. Cell viability was measured by the MTT assay, and the viability of cells untreated with small molecules was set at 100%. Experiments were performed in triplicate, and error bars indicate the standard deviation.
As shown above, myricetin and spinacine sensitize SiHa cells to TRAIL and chemotherapy drugs. […] Other types of HPV^+ cancer cells were examined, and in particular, head and neck squamous cell carcinoma (HNSCC) cells can also be sensitized in this manner. […] For the combination experiments, 50 ng/ml TRAIL was applied in combination with either myricetin (0-200 μM) or spinacine (0-100 μM). […] In contrast […], TRAIL-induced cell death was enhanced 30% in UPCI-SCC90-UP-Clone 35, #90. Furthermore, 40 μM spinacine was able to enhance TRAIL-induced cell death in the HPV^+ #90 cell lines up to 50%.
The extracellular domain of human TRAIL was cloned into a pTriEx expression plasmid containing N-terminal Hisx6 tag. His-TRAIL was expressed in the E. coli BL-21 pLys strain and purified as previously described. Doxorubicin and cisplatin were purchased from Sigma. His-TRAIL, doxorubicin, and cisplatin were diluted in PBS to the desired concentration before using. […] All experiments were repeated at least three times (three biological replicates, carried out on different days), with each experimental group measured in triplicate within each of these individual experiments. […]

[3] = bead-based assay, compounds tested 1.4 μM to 3.2 mM

Molecule | inhibition of E6/caspase 8 binding (in words) (GST-E6/His-caspase 8) | inhibition of caspase 8/caspase 8 interaction (in words) [1] | inhibition of E6/E6AP interaction (in words) (GST-E6/His-E6AP) | further results
COCc1nc2ccccc2[nH]1 [Compound 4, 2-(methoxymethyl)-1H-benzimidazole] |  |  |  | EC50 for GST-E6/His-caspase 8 interaction (GST-E6/His-caspase 8; [3]): No inhibition; EC50 for GST-caspase 8/His-caspase 8 interaction ([1]; compounds tested 1.4 μM to 3.2 mM): No inhibition; EC50 for GST-E6/His-E6AP interaction (GST-E6/His-E6AP; [3]): No inhibition
CS(=O)(=O)O.NCCCn1ccc2ccccc21 [Compound 1, 3-(1H-indol-1-yl)propan-1-amine methanesulfonate] | dose-dependent inhibition | able to inhibit the caspase 8/caspase 8 interaction | could also inhibit the E6/E6AP interaction | 
c1ccc2[nH]cnc2c1 [Compound 2, benzimidazole] | dose-dependent inhibition | able to inhibit the caspase 8/caspase 8 interaction | could also inhibit the E6/E6AP interaction | 
B1 |  |  |  | response of cells to TRAIL alone (in words) (SiHa cells): relatively resistant; response of HNSCC cell lines to TRAIL alone (in words) [2]: resistance
